Patent publication US6610883B1, “Compounds having selective activity for retinoid X receptors, and means for modulation of processes mediated by retinoid X receptors” (Ligand Pharmaceuticals, Inc., priority 1992, dated 2003)
Where two headings read alike, the source gives them in different places. One block for each compound: values may come before it.

What was measured:
HL60 cells [1] = system: HL60 cells
[2] = system: RAR subfamily (RARα, RARβ, RARγ); assay: Co-transfection assay, dose response profiles, RAR subfamily; assay type: cell-based; details: in words
Excerpt: (§1) The co-transfection assay provides a mechanism to evaluate the ability of a compound to modulate the transcription response initiated by an intracellular receptor. […] Berger, et al., J. Steroid Biochem Molec.
(§2) Briefly, the co-transfection assay involves the introduction of two plasmids by transient transfection into a retinoid receptor-negative mammalian cell background. The first plasmid contains a retinoid receptor cDNA and directs constitutive expression of the encoded receptor. The second plasmid contains a cDNA that encodes for a readily quantifiable protein, e.g., firefly luciferase or chloramphenicol acetyl transferase (CAT), under control of a promoter containing a retinoid acid response element, which confers retinoid dependence on the transcription of the reporter. In this co-transfection assay, all retinoid receptors respond to all-trans-retinoic acid in a similar fashion. This assay can be used to accurately measure efficacy and potency of retinoic acid and synthetic retinoids as ligands that interact with the individual retinoid receptor subtypes.
(§3) Accordingly, synthetic retinoid compounds of the current invention were evaluated for their interaction with retinoid receptor subtypes using the co-transfection assay in which CV-1 cells were co-transfected with one of the retinoid receptor subtypes, a reporter construct, and an internal control to allow normalization of the response for transfection efficiency. The following example is illustrative.
Co-transfection Assay In CV-1 Cells: A monkey kidney cell line, CV-1, was used in the cis-trans assay. Cells were transfected with two plasmids. […] The cis-vector contains an easily assayable gene product, in this case the firefly luciferase, coupled to a retinoid-responsive promoter, i.e., an RARE or RXRE. Addition of retinoic acid or an appropriate synthetic retinoid results in the formation of a retinoid-RAR or -RXR complex that activates the expression of luciferase gene, causing light to be emitted from cell extracts. […]

[3] = system: RXR subfamily (RXRα, RXRβ, RXRγ)
Excerpt: as §1
as §2, with “This assay can be used to accurately measure efficacy and potency of retinoic acid and synthetic retinoids as ligands that interact with the individual retinoid receptor subtypes.” left out
as §3, with “The following example is illustrative.” left out

HL60 cells [4] = assay: HL60 differentiation (NBT reduction); assay type: cell-based; details: for EC50: Homo sapiens
[5] = system: ME180, a squamous cell carcinoma; assay: Cell growth of ME180; assay type: cell-based, human; details: ME180, cell number
Excerpt: (§4) The effects on growth of these cells were monitored by evaluation of cell number, and also by evaluation of growth in semi-solid medium for the RPMI18226 cell line. […] The therapeutic index is defined as the ratio of efficacy to toxicity of a compound.

[6] = rats
Experimental: Male Sprague-Dawley rats (160-200 gram) were obtained from Harlan. Animals were fed standard laboratory diets (Harlan/Teklad) and kept in an environmentally controlled animal house with a light period lasting from 6 a.m. to 6 p.m. Animals were treated with drugs prepared as suspensions in olive oil.
[…]
Plasma total cholesterol was measured enzymatically utilizing Boeringer Mannheim Diagnostics High Performance Cholesterol Methods with an ABBOTT VP Bichromatic Analyzer. cholesterol was measured after preparation of the HDL-containing fraction by heparin-manganese precipitation of plasma. HDL-cholesterol in this fraction was estimated as mentioned earlier. All HDL separations were checked for contamination by other lipoproteins with agarose gel electrophoresis.

[7] = system: transglutaminase activity in the HL60 cells; assay: Transglutaminase induction in HL60 cells
[8] = system: RPMI18226, a multiple myeloma; assay: Cell growth of RPMI18226; assay type: cell-based, human; details: RPMI18226, cell number and growth in semi-solid medium
Excerpt: as §4

apoA1 = assay: Circulating apoA1 in rats (Western Blot); details: 3 mg/kg orally, daily for four days
Excerpt: Serum samples were taken and analyzed by Western Blot using antisera specific to rat apoA1.

RXRα/PPAR = assay: Co-transfection of RXRα and PPAR in HepG2 cells; assay type: cell-based
Excerpt: Specifically, peroxisome proliferator-activated receptor (PPAR) is a member of the intracellular receptor super family that plays a role in the modulation of lipid homeostasis. […] These agents, called peroxisome proliferators, have been used in man as hypolipidemic agents.

RXR = assay: apoA1 "A" site reporter co-transfection in HepG-2 cells, RXR; assay type: cell-based
RAR = assay: apoA1 "A" site reporter co-transfection in HepG-2 cells, RAR
Rhino mice utriculi = assay: Comedolytic test on Rhino mice; details: 0.1% solution, topical
skin of Rhino mice = assay: Skin irritation in Rhino mice; assay type: in vivo; details: compared with 9-cis- or all-trans-retinoic acid
RXRβ = molecular target: T1, RXRβ (Mus musculus, UniProt P28704); assay: Co-transfection (cis-trans) assay in CV-1 cells, RXRβ; assay type: cell-based; details: RXRβ
T1 construct: expressed in transfected cells; host or cells: CV-1 (monkey kidney)
T1 sequence (P28704 1-520): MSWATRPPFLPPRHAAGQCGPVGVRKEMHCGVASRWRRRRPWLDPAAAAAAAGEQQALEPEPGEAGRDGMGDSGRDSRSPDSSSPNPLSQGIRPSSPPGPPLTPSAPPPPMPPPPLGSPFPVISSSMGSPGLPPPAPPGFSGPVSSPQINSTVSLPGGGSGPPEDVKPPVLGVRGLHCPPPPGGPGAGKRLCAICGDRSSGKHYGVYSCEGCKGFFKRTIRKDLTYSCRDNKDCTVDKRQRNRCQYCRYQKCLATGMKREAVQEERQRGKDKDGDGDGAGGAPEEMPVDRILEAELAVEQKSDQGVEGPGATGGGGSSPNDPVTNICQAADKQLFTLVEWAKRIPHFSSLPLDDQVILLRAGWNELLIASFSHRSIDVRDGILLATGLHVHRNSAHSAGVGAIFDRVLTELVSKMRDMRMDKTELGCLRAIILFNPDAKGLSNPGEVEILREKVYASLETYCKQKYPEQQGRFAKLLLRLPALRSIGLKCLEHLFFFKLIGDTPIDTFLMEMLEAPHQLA
Excerpt: as §1, §2, §3
(§5) Retinoids: All-tans-retinoic acid (RA) and 13-cis-retinoic acid (13-cis-RA) were obtained from Sigma. […] Retinoids were dissolved in dimethylsulfoxide for use in the transcriptional activation assays.
(§6) Co-transfection Assay In CV-1 Cells: A monkey kidney cell line, CV-1, was used in the cis-trans assay. Cells were transfected with two plasmids. […] The cis-vector contains an easily assayable gene product, in this case the firefly luciferase, coupled to a retinoid-responsive promoter, i.e., an RARE or RXRE. Addition of retinoic acid or an appropriate synthetic retinoid results in the formation of a retinoid-RAR or -RXR complex that activates the expression of luciferase gene, causing light to be emitted from cell extracts. The level of luciferase activity is directly proportional to the effectiveness of the retinoid-receptor complex in activating gene expression. This sensitive and reproducible co-transfection approach permits the identification of retinoids that interact with the different receptor isoforms.
(§7) Cells were cultured in DMEM supplemented with 10% charcoal resin-stripped fetal bovine serum, and experiments were conducted in 96-well plates. […] Cells were transfected for 6 h and then washed to remove the precipitate. The cells were then incubated for 36 h with or without retinoid. After the transfection, all subsequent steps were performed on a Beckman Biomek Automated Workstation. […] All determinations were performed in triplicate in two independent experiments and were normalized for transfection efficiency by using β-galactosidase as the internal control. […] Efficacy values less than 5% are not statistically different than the 0% background.

[9] = system: myeloma cell line (RPMI 8226); assay: Thymidine incorporation in myeloma cell line RPMI 8226; assay type: cell-based
Excerpt: This assay examines the incorporation of radiolabeled thymidine into DNA, and by determining the ability of a compound to inhibit thymidine incorporation into DNA, provides a measure of cell proliferation.

RXRα = molecular target: T2, RXRα (Homo sapiens, UniProt P19793); assay: Co-transfection (cis-trans) assay in CV-1 cells, RXRα; assay type: cell-based; set-up: Emax: dose or concentration left out as unconfirmed
T2 construct: The first plasmid contains a retinoid receptor cDNA and directs constitutive expression of the encoded receptor; expressed in transfected cells; host or cells: CV-1 (monkey kidney)
T2 sequence (P19793 1-462): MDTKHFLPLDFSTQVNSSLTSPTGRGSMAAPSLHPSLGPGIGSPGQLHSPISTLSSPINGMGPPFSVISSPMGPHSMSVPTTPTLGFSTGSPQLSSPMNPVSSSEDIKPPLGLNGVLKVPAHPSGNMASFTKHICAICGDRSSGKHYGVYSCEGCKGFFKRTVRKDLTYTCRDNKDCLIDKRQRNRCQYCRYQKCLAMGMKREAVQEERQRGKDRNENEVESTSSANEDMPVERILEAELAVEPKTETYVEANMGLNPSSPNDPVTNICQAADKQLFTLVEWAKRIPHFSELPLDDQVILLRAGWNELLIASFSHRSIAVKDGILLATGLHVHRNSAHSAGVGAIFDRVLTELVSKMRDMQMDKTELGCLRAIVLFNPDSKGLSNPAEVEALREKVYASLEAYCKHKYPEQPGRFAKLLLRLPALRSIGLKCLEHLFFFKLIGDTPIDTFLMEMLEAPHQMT
Excerpt: as §1, §2, §3, §5, §6, §7

RXRγ = molecular target: T3, RXRγ (Mus musculus, UniProt P28705); assay: Co-transfection (cis-trans) assay in CV-1 cells, RXRγ; assay type: cell-based
T3 construct: expressed in transfected cells; host or cells: CV-1 (monkey kidney)
T3 sequence (P28705 1-463): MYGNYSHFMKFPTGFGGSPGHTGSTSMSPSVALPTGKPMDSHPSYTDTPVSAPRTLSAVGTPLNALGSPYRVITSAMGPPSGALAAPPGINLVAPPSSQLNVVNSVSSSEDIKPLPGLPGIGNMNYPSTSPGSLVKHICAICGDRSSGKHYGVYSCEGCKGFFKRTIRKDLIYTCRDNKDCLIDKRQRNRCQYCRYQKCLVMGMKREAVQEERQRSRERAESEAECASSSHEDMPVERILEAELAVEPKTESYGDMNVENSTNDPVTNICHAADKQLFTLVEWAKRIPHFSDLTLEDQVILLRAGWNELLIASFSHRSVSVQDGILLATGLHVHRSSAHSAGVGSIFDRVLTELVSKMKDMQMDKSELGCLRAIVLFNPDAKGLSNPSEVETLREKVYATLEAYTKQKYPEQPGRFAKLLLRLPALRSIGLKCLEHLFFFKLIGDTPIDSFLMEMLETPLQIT
Excerpt: as §1, §2, §3, §5, §6, §7

melting point: 173 °C
Structure (SMILES): C=C(c1ccc2c(c1)C(C)(C)CCC2(C)C)c1ccc(C(=O)O)cn1 [Compound 56, 2-[1-(5,5,8,8-tetramethyl-5,6,7,8-tetrahydro-2-naphthyl)ethenyl]pyridine-5-carboxylic acid]

EC50 (HL60 cells [4]; HL-60, HL60, NBT reduction, read-out: EC50 for mediated differentiation): 2 µM
Structure (SMILES): CC1=C(/C=C/C(C)=C/C=C/C(C)=C/C(=O)O)C(C)(C)CCC1 [all-trans-retinoic acid]
Effect on cellular proliferation (thymidine incorporation) (HL60 cells [1]): inhibits thymidine incorporation
Activation of members of the RAR subfamily [2]: activate members of both the RAR and RXR subfamilies
Activation of members of the RXR subfamily [3]: activate members of both the RAR and RXR subfamilies

Structure (SMILES): C=C(c1ccc(C(=O)O)cc1)c1cc2c(cc1C)C(C)(C)CCC2(C)C [3-methyl-TTNEB, 4-[1-(3,5,5,8,8-pentamethyl-5,6,7,8-tetrahydro-2-naphthyl)ethenyl]benzoic acid]
Effect on cell growth [5]: inhibit cell growth in a concentration-dependent manner
HDL levels ([6]; 100 mg/kg i.p., 4 days): substantial and statistically significant increases in HDL levels
Development of tolerance to pharmacological action ([6]; 30 day p.o. study, 10, 30, or 100 mg/kg): did not indicate development of tolerance
Total cholesterol ([6]; four days): showed an increase due to the increase of the HDL-cholesterol fraction
Triglycerides ([6]; four days): either no change or a slight decrease
Lowest dose with significant increase of HDL-cholesterol ([6]; i.p., four days): 0.3 mg/kg
Increase of plasma HDL-cholesterol ([6]; optimally efficacious dose): greater than 60%
Induction of transglutaminase activity [7]: induce transglutaminase activity in the HL60 cells
Effect on cell growth [8]: inhibit cell growth in a concentration-dependent manner
Circulating apoA1 level (apoA1): significant increase in circulating apoA1 level
Normalized Response (%) (RXRα/PPAR): 90%
Induction of differentiation (NBT reduction) (HL60 cells [4]; HL60): not to induce undue differentiation
EC50 (HL60 cells [4]; HL-60, read-out: EC50 for mediated differentiation): > 1000 µM

Structure (SMILES): Cc1cc2c(cc1C(=O)c1ccc(C(=O)O)cc1)C(C)(C)CCC2(C)C [3-methyl-TTNCB, 4-[(3,5,5,8,8-pentamethyl-5,6,7,8-tetrahydro-2-naphthyl)carbonyl]benzoic acid]
Reporter activation via apoA1 "A" site with RXR (RXR): activation in the system
Reporter activation via apoA1 "A" site with RAR (RAR): no effect when RAR was used in the transfection
Activation of members of the RAR subfamily [2]: no significant activity for members of the RAR subfamily
Inhibition of the utriculi diameter (Rhino mice utriculi): approximately 50%
Skin irritation (skin of Rhino mice): less irritating to the skin of Rhino mice than 9-cis- or all-trans-retinoic acid

Structure (SMILES): CC1=C(/C=C/C(C)=C\C=C\C(C)=C\C(=O)O)C(C)(C)CCC1 [9-cis-retinoic acid]
Activation of members of the RAR subfamily [2]: activate members of both the RAR and RXR subfamilies
Activation of members of the RXR subfamily [3]: activate members of both the RAR and RXR subfamilies
Efficacy (RXRβ; maximal response relative to all-trans-retinoic acid at 10^−5 M): 140%

Structure (SMILES): CC(C)(Oc1ccc(Cl)cc1)C(=O)O [clofibric Acid, clofibric acid, reference compound]
Normalized Response (%) (RXRα/PPAR): 100%

Structure (SMILES): C/C(=C\c1ccc(C(=O)O)cc1)c1ccc2c(c1)C(C)(C)CCC2(C)C [TTNPB, reference compound]
inhibition at 10 pM ([9]; Homo sapiens, RPMI-8226): 9%
IC50 ([9]; Homo sapiens, RPMI 8226, FIG. 11, read-out: IC50, inhibition of thymidine incorporation): ~0.05 nM
Concentration with essentially no effect on cell proliferation ([9]; RPMI 8226, FIG. 11): less than 10^−11 M
Emax (RXRα; CV-1, read-out: Efficacy): < 5%
EC50 (RXRα; RXRα, CV-1 cells, luciferase reporter, 36 h, read-out: Potency): > 10 µM
EC50 (RXRγ): > 10 µM
Emax at 10 µM (RXRγ; CV-1, RXRγ, maximal response relative to all-trans-retinoic acid at 10^−5 M, read-out: Efficacy): < 5%
Emax at 10 µM (RXRβ; CV-1, maximal response relative to all-trans-retinoic acid at 10^−5 M, read-out: Efficacy): < 5%
EC50 (RXRβ; CV-1 cells, luciferase reporter, 36 h, read-out: Potency): > 10 µM
